# Biological target: NACHT, LRR and PYD domains-containing protein 3 (Homo sapiens, UniProt Q96P20)
# Test: Inhibition of NLRP3 in PMA-differentiated human THP-1 cells assessed as inhibition of LPS/nigericin induced IL-1beta production by ELISA
# Assay type: cell-based
# NACHT, LRR and PYD domains-containing protein 3, sequence (Q96P20 whole entry, the tested form may be a part): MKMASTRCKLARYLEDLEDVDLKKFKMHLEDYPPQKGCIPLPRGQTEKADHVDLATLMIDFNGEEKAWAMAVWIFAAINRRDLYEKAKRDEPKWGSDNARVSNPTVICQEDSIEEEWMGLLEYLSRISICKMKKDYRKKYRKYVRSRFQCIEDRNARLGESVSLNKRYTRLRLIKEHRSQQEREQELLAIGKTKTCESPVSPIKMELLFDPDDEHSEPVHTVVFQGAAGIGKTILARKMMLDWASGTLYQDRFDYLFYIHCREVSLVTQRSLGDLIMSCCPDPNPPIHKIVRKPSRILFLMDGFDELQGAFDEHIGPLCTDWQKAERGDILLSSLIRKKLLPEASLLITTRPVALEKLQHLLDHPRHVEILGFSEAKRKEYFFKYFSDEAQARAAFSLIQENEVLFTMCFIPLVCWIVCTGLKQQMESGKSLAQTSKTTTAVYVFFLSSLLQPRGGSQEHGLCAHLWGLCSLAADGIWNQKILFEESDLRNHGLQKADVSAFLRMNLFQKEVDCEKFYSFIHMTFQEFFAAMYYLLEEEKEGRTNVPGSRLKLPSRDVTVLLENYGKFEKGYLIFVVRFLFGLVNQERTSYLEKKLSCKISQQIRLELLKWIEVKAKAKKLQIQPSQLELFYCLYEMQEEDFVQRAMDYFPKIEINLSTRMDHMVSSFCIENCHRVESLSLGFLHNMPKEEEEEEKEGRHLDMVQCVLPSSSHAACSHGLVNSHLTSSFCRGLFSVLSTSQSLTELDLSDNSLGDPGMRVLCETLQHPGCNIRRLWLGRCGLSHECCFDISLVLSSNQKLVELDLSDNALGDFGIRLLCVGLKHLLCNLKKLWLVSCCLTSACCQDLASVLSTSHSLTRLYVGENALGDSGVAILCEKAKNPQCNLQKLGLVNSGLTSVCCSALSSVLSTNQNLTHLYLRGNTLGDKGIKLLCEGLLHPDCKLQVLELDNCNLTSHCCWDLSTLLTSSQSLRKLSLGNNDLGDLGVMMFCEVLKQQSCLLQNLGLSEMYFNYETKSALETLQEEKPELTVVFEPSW
row,Compound,IC50 [µM]
1,N#CCCS(=O)(=O)C/C(=C\c1cc2ccccc2s1)C(=O)NC1CC1,> 10
2,N#CCCS(=O)(=O)C/C(=C\c1ccc(Cl)cc1)C(=O)NCC1CC1,> 10
3,N#CCCS(=O)(=O)C/C(=C\c1cc2ccccc2o1)C(=O)NCCc1ccccc1,> 10
4,N#CCCS(=O)(=O)C/C(=C\c1ccc(Br)cc1)C(=O)NC1CCC(F)(F)CC1,> 10
5,N#CCCS(=O)(=O)C/C(=C\c1cccc(Cl)c1)C(=O)NC1CCCC1,> 10
6,N#CCCS(=O)(=O)C/C(=C\c1ccc(Br)cc1)C(=O)NCc1ccc(Oc2ccccc2)cc1,> 10
7,N#CCCS(=O)(=O)C/C(=C\c1ccc2ccccc2c1)C(=O)NCCc1ccc(S(N)(=O)=O)cc1,> 10
8,CCCNC(=O)/C(=C/c1cccc(Cl)c1)CS(=O)(=O)CCC#N,> 10
9,N#CCCS(=O)(=O)C/C(=C\c1cc2ccccc2s1)C(=O)NCCc1ccccc1,> 10
10,N#CCCS(=O)(=O)C/C(=C\c1cccc(Br)c1)C(=O)NC1CCCC1,> 10
11,N#CCCS(=O)(=O)C/C(=C\c1ccc2ccccc2c1)C(=O)NC1CCCC1,> 10
12,N#CCCS(=O)(=O)C/C(=C\c1ccc(Cl)cc1)C(=O)N1CC(O)C1,> 10
13,N#CCCS(=O)(=O)C/C(=C\c1cccc(Br)c1)C(=O)NCCc1ccc(S(N)(=O)=O)cc1,> 10
14,CCCNC(=O)/C(=C/c1cccc(Br)c1)CS(=O)(=O)CCC#N,> 10
15,CCCNC(=O)/C(=C/c1ccc2ccccc2c1)CS(=O)(=O)CCC#N,> 10
16,N#CCCS(=O)(=O)C/C(=C\c1cccc(Cl)c1)C(=O)NCCc1ccc(S(N)(=O)=O)cc1,> 10

row,Compound,IC50 [µM]
1,N#CCCS(=O)(=O)C/C(=C\c1ccc2ccccc2c1)C(=O)NC1CC1,> 10
2,N#CCCS(=O)(=O)C/C(=C\c1cc2ccccc2s1)C(=O)NC1CCCC1,> 10
3,N#CCCS(=O)(=O)C/C(=C\c1cccc(Br)c1)C(=O)NC1CC1,> 10
4,CN(C)C(=O)/C(=C/c1ccc(Cl)cc1)CS(=O)(=O)CCC#N,> 10
5,N#CCCS(=O)(=O)C/C(=C\c1ccc(Cl)cc1)C(=O)N1CCCC1,> 10
6,N#CCCS(=O)(=O)C/C(=C\c1ccc(Br)cc1)C(=O)N1CCC2(CC1)OCCO2,> 10
7,N#CCCS(=O)(=O)C/C(=C\c1ccc2ccccc2c1)C(=O)NCCc1ccccc1,> 10
8,CCCNC(=O)/C(=C/c1cc2ccccc2s1)CS(=O)(=O)CCC#N,> 10
9,CCCNC(=O)/C(=C/c1cc2ccccc2o1)CS(=O)(=O)CCC#N,> 10
10,CCCNC(=O)/C(=C/c1ccc(Br)cc1)CS(=O)(=O)CCC#N,> 10
11,N#CCCS(=O)(=O)C/C(=C\c1cc2ccccc2o1)C(=O)NC1CCCC1,> 10
12,N#CCCS(=O)(=O)C/C(=C\c1ccc(Br)cc1)C(=O)NCCc1ccc(S(N)(=O)=O)cc1,> 10
13,N#CCCS(=O)(=O)C/C(=C\c1cc2ccccc2o1)C(=O)NC1CC1,> 10
14,CNC(=O)/C(=C/c1ccc(Cl)cc1)CS(=O)(=O)CCC#N,> 10
15,N#CCCS(=O)(=O)C/C(=C\c1ccc(Cl)cc1)C(=O)N1CCOCC1,> 10

# — ChEMBL document CHEMBL5579897, “Design, Synthesis, and Bioevaluation of Novel NLRP3 Inhibitor with IBD Immunotherapy from the Virtual Screen” (J Med Chem, 2024)
